The molecules below were run against recombinant CaMKIIδ (Homo sapiens (Human), UniProt Q13557) (assay: CaMKIIδ biochemical assay (HTRF)). Details: 10 pM CaMKIIδ, 110 nM calmodulin, 12 μM ATP, 1 hour; read-out: CAMKIID-HTRF-384V2 (IC50 - nM).
Protocol: CaMKIIδ Biochemical Assay
The biochemical activity of recombinant CaMKIIδ was measured by monitoring the phosphorylation of a target peptide using Homogenous Time Resolved Fluorescence (HTRF) technology from CisBio Bioassays.

In order of rising IC50:
1. CCN(CC)[C@@H](C)CNC(=O)c1cc(NCC(=O)NC)nc(-c2cnn3ccc(-c4cccs4)nc23)c1 [Example 246, (S)—N-(2-(diethylamino)propyl)-2-((2-(methylamino)-2-oxoethyl)amino)-6-(5-(thiophen-2-yl)pyrazolo[1,5-a]pyrimidin-3-yl)isonicotinamide]  0.17 nM
2. CCN(CC)[C@@H](C)CNC(=O)c1cc(-c2cnn3ccc(-c4cccs4)nc23)nc(N2CC3(CCC3(F)F)C2)c1 [Example 249, (S)—N-(2-(diethylamino)propyl)-2-(5,5-difluoro-2-azaspiro[3.3]heptan 2 yl)-6-(5-(thiophen-2-yl)pyrazolo[1,5-a]pyrimidin-3-yl)isonicotinamide]  0.2 nM
3. CCN(CC)[C@@H](C)CNC(=O)c1cc(-c2cnn3ccc(-c4cccs4)nc23)nc(N2CC(C)(N(C)C)C2)c1 [Example 248, (S)—N-(2-(diethylamino)propyl)-2-(3-(dimethylamino)-3-methylazetidin-1-yl)-6-(5-(thiophen-2-yl)pyrazolo[1,5-a]pyrimidin-3-yl)isonicotinamide]  0.21 nM
4. CCN(CC)[C@@H](C)CNC(=O)c1cc(-c2cnn3ccc(-c4cccs4)nc23)nc(N2C[C@@H]3C[C@H]2CO3)c1 [Example 253, 2-((1S,4S)-2-oxa-5-azabicyclo[2.2.1]heptan-5-yl)-N—((S)-2-(diethylamino)propyl)-6-(5-(thiophen-2-yl)pyrazolo[1,5-a]pyrimidin-3-yl)isonicotinamide]  0.38 nM
5. CCN(CC)[C@@H](C)CNC(=O)c1cc(-c2cnn3ccc(-c4cccs4)nc23)nc(N2CCC(OC)CC2)c1 [Example 247, (S)—N-(2-(diethylamino)propyl)-2-(4-methoxypiperidin-1-yl)-6-(5-(thiophen-2-yl)pyrazolo[1,5-a]pyrimidin-3-yl)isonicotinamide]  0.46 nM
6. CCN(CC)CCNC(=O)c1cc(-c2cnn3ccc(-c4cccs4)nc23)nc(N2CC(OC)C2)c1 [Example 254, N-(2-(diethylamino)ethyl)-2-(3-methoxyazetidin-1-yl)-6-(5-(thiophen-2-yl)pyrazolo[1,5-a]pyrimidin-3-yl)isonicotinamide]  0.86 nM
7. CCN(CC)[C@@H](C)CNC(=O)c1cc(-c2cnn3ccc(-c4cccs4)nc23)nc(N2CCC23CCC3)c1 [Example 250, (S)—N-(2-(diethylamino)propyl)-2-(1-azaspiro[3.3]heptan-1-yl)-6-(5-(thiophen-2-yl)pyrazolo[1,5-a]pyrimidin-3-yl)isonicotinamide]  1.61 nM
8. CCN(CC)[C@@H](C)CNC(=O)c1cc(-c2cnn3ccc(-c4cccs4)nc23)nc(-n2cncn2)c1 [Example 252, (S)—N-(2-(diethylamino)propyl)-2-(5-(thiophen-2-yl)pyrazolo[1,5-a]pyrimidin-3-yl)-6-(1H-1,2,4-triazol-1-yl)isonicotinamide]  1.87 nM
9. CCN(CC)[C@@H](C)CNC(=O)c1cc(-c2cnn3ccc(-c4cccs4)nc23)nc(N2CCC[C@@H]2C(F)(F)F)c1 [Example 251, N—((S)-2-(diethylamino)propyl)-2-(5-(thiophen-2-yl)pyrazolo[1,5-a]pyrimidin-3-yl)-6-((R)-2-(trifluoromethyl)pyrrolidin-1-yl)isonicotinamide]  2.05 nM
10. CCN[C@@H](C)CNC(=O)c1cc(-c2cnn3ccc(-c4cccs4)nc23)nc(N2CC(C)(O)C2)c1 [Example 245, (S)—N-(2-(ethylamino)propyl)-2-(3-hydroxy-3-methylazetidin-1-yl)-6-(5-(thiophen-2-yl)pyrazolo[1,5-a]pyrimidin-3-yl)isonicotinamide]  9.25 nM
11. COC1CN(c2cc(C(=O)NC[C@@H]3CCCN3)cc(-c3cnn4ccc(-c5cccs5)nc34)n2)C1 [Example 255, (S)-2-(3-methoxyazetidin-1-yl)-N-(pyrrolidin-2-ylmethyl)-6-(5-(thiophen-2-yl)pyrazolo[1,5-a]pyrimidin-3-yl)isonicotinamide]  33.9 nM
